Several values for one entry are separate records, joined by “and”; a condition that tells them apart may be missing. Equal entries are not always repeated. Toxic doses and inconclusive results are not listed.
System: L1210 leukemia ip in BDF1 mice, survival T/C
Assay: NCI In Vivo Anticancer Drug Screen. Data for tumor model L1210 Leukemia (intraperitoneal) in B6D2F1 (BDF1) mice
Conditions: endpoint: mean survival time, higher = longer survival
Summary of the method: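 Ratio derived from survival: compound-dosed mice over vehicle-dosed mice, all bearing a transplantable tumor.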

[1] = dose: 100.0 mg/kg/injection, schedule: Q01DX001 (ip), vehicle: saline
[2] = dose: 200.0 mg/kg/injection, schedule: Q01DX001 (ip), vehicle: saline
[3] = dose: 400.0 mg/kg/injection, schedule: Q01DX001 (ip), vehicle: saline
[4] = dose: 100.0 mg/kg/injection, schedule: Q04DX003 (ip), vehicle: saline with Tween-80

Clc1ncnc2nc[nH]c12
T/C (dose: 7.5 mg/kg/injection, schedule: Q01DX010 (ip), vehicle: saline): 93 % of control and 96 % of control | T/C (dose: 9.37 mg/kg/injection, schedule: Q03HX008 (ip), vehicle: other): 103 % of control | T/C (dose: 9.37 mg/kg/injection, schedule: Q03HX016 (ip), vehicle: other): 102 % of control | T/C (dose: 9.37 mg/kg/injection, schedule: Q03HX024 (ip), vehicle: other): 112 % of control | T/C (dose: 12.5 mg/kg/injection, schedule: Q03HX016 (ip), vehicle: other): 105 % of control | T/C (dose: 12.5 mg/kg/injection, schedule: Q03HX024 (ip), vehicle: other): 104 % of control | T/C (dose: 15.0 mg/kg/injection, schedule: Q01DX010 (ip), vehicle: saline): 93 % of control and 105 % of control | T/C (dose: 18.75 mg/kg/injection, schedule: Q03HX008 (ip), vehicle: other): 111 % of control | T/C (dose: 18.75 mg/kg/injection, schedule: Q03HX016 (ip), vehicle: other): 113 % of control | T/C (dose: 18.75 mg/kg/injection, schedule: Q03HX024 (ip), vehicle: other): 110 % of control | T/C (dose: 25.0 mg/kg/injection, schedule: Q01DX006 (iv), vehicle: other): 108 % of control | T/C (dose: 25.0 mg/kg/injection, schedule: Q03HX016 (ip), vehicle: other): 112 % of control | T/C (dose: 25.0 mg/kg/injection, schedule: Q03HX024 (ip), vehicle: other): 114 % of control | T/C (dose: 30.0 mg/kg/injection, schedule: Q01DX010 (ip), vehicle: saline): 104 % of control and 107 % of control | T/C (dose: 37.5 mg/kg/injection, schedule: Q03HX024 (ip), vehicle: other): 160 % of control | T/C (dose: 50.0 mg/kg/injection, schedule: Q01DX001 (iv), vehicle: other): 98 % of control | T/C (dose: 50.0 mg/kg/injection, schedule: Q01DX005 (ip), vehicle: other): 103 % of control | T/C (dose: 50.0 mg/kg/injection, schedule: Q01DX006 (iv), vehicle: other): 108 % of control | T/C (dose: 50.0 mg/kg/injection, schedule: Q01DX009 (ip), vehicle: other): 106 % of control and 109 % of control | T/C (dose: 50.0 mg/kg/injection, schedule: Q01DX009 (oral), vehicle: other): 112 % of control | T/C (dose: 50.0 mg/kg/injection, schedule: Q01DX009 (sc), vehicle: other): 114 % of control | T/C (dose: 50.0 mg/kg/injection, schedule: Q01DX Z (ip), vehicle: carboxymethylcellulose (CMC)): 110 % of control | T/C (dose: 60.0 mg/kg/injection, schedule: Q01DX010 (ip), vehicle: saline): 101 % of control and 103 % of control | T/C (dose: 75.0 mg/kg/injection, schedule: Q01DX001 (sc), vehicle: other): 106 % of control | T/C (dose: 75.0 mg/kg/injection, schedule: Q03HX016 (ip), vehicle: other): 163 % of control | T/C (dose: 75.0 mg/kg/injection, schedule: Q03HX024 (ip), vehicle: other): 189 % of control | T/C (dose: 75.0 mg/kg/injection, schedule: Q04DX003 (ip), vehicle: other): 106 % of control | T/C (dose: 75.0 mg/kg/injection, schedule: Q08DX002 (ip), vehicle: other): 103 % of control | T/C (dose: 100.0 mg/kg/injection, schedule: Q01DX001 (iv), vehicle: other): 101 % of control | T/C (dose: 100.0 mg/kg/injection, schedule: Q01DX001 (oral), vehicle: other): 103 % of control | T/C (dose: 100.0 mg/kg/injection, schedule: Q01DX005 (ip), vehicle: other): 118 % of control | T/C (dose: 100.0 mg/kg/injection, schedule: Q01DX006 (iv), vehicle: other): 113 % of control | T/C (dose: 100.0 mg/kg/injection, schedule: Q01DX009 (ip), vehicle: other): 121 % of control | T/C (dose: 100.0 mg/kg/injection, schedule: Q01DX Z (ip), vehicle: carboxymethylcellulose (CMC)): 156 % of control | T/C (dose: 100.0 mg/kg/injection, schedule: Q03HX016 (ip), vehicle: other): 163 % of control | T/C (dose: 100.0 mg/kg/injection, schedule: Q03HX024 (ip), vehicle: other): 150 % of control | T/C (dose: 100.0 mg/kg/injection, schedule: Q04DX003 (ip), vehicle: other): 115 % of control | T/C (dose: 100.0 mg/kg/injection, schedule: Q08DX002 (ip), vehicle: other): 101 % of control | T/C (dose: 146.0 mg/kg/injection, schedule: Q01DX015 (ip), vehicle: gum acacia): 152 % of control | T/C (dose: 150.0 mg/kg/injection, schedule: Q01DX001 (sc), vehicle: other): 113 % of control | T/C (dose: 150.0 mg/kg/injection, schedule: Q04DX003 (ip), vehicle: other): 114 % of control | T/C (dose: 150.0 mg/kg/injection, schedule: Q08DX002 (ip), vehicle: other): 104 % of control | T/C (dose: 200.0 mg/kg/injection, schedule: Q01DX001 (iv), vehicle: other): 106 % of control | T/C (dose: 200.0 mg/kg/injection, schedule: Q01DX001 (oral), vehicle: other): 110 % of control | T/C (dose: 200.0 mg/kg/injection, schedule: Q01DX009 (oral), vehicle: other): 152 % of control and 160 % of control | T/C (dose: 200.0 mg/kg/injection, schedule: Q04DX003 (ip), vehicle: other): 109 % of control | T/C (dose: 200.0 mg/kg/injection, schedule: Q08DX002 (ip), vehicle: other): 105 % of control | T/C (dose: 218.0 mg/kg/injection, schedule: Q01DX015 (ip), vehicle: gum acacia): 150 % of control | T/C (dose: 300.0 mg/kg/injection, schedule: Q01DX001 (sc), vehicle: other): 113 % of control | T/C (dose: 300.0 mg/kg/injection, schedule: Q04DX003 (ip), vehicle: other): 113 % of control | T/C (dose: 300.0 mg/kg/injection, schedule: Q08DX002 (ip), vehicle: other): 105 % of control | T/C (dose: 327.0 mg/kg/injection, schedule: Q01DX015 (ip), vehicle: gum acacia): 152 % of control | T/C (dose: 360.0 mg/kg/injection, schedule: Q01DX015 (ip), vehicle: gum acacia): 110 % of control | T/C (dose: 400.0 mg/kg/injection, schedule: Q01DX009 (oral), vehicle: other): 158 % of control | T/C (dose: 400.0 mg/kg/injection, schedule: Q01DX015 (ip), vehicle: other): 105 % of control | T/C (dose: 400.0 mg/kg/injection, schedule: Q04DX003 (ip), vehicle: other): 115 % of control | T/C (dose: 400.0 mg/kg/injection, schedule: Q08DX002 (ip), vehicle: other): 103 % of control | T/C (dose: 490.0 mg/kg/injection, schedule: Q01DX015 (ip), vehicle: gum acacia): 90 % of control | T/C (dose: 800.0 mg/kg/injection, schedule: Q04DX003 (ip), vehicle: other): 114 % of control

Cc1cc(N)nc(=O)n1C1OC(CO)C(O)C1O (stereo unspecified)
T/C [1]: 96 % of control | T/C [2]: 102 % of control | T/C [3]: 101 % of control

O=[N+]([O-])c1ccc(O)c([N+](=O)[O-])c1
T/C (dose: 3.35 mg/kg/injection, schedule: Q01DX Z (ip), vehicle: carboxymethylcellulose (CMC)): 94 % of control | T/C (dose: 10.32 mg/kg/injection, schedule: Q01DX Z (ip), vehicle: carboxymethylcellulose (CMC)): 95 % of control | T/C (dose: 13.4 mg/kg/injection, schedule: Q01DX Z (ip), vehicle: carboxymethylcellulose (CMC)): 98 % of control | T/C (dose: 17.86 mg/kg/injection, schedule: Q01DX Z (ip), vehicle: carboxymethylcellulose (CMC)): 94 % of control | T/C (dose: 26.8 mg/kg/injection, schedule: Q01DX Z (ip), vehicle: carboxymethylcellulose (CMC)): 88 % of control | T/C [1]: 94 % of control

c1ccc2c(c1)[nH]c1ccncc12
T/C (dose: 25.0 mg/kg/injection, schedule: Q04DX003 (ip), vehicle: saline with Tween-80): 101 % of control | T/C (dose: 50.0 mg/kg/injection, schedule: Q04DX003 (ip), vehicle: saline with Tween-80): 95 % of control | T/C [4]: 97 % of control

CC1=NNC(=O)CC1
T/C (dose: 100.0 mg/kg/injection, schedule: Q04DX003 (ip), vehicle: saline): 102 % of control | T/C (dose: 200.0 mg/kg/injection, schedule: Q04DX003 (ip), vehicle: saline): 104 % of control | T/C (dose: 400.0 mg/kg/injection, schedule: Q04DX003 (ip), vehicle: saline): 96 % of control

CC(=O)C(C(N)=O)C(c1ccc2c(c1)OCO2)C(C(C)=O)C(=O)NCc1ccccc1 (stereo unspecified)
T/C (dose: 25.6 mg/kg/injection, schedule: Q04DX002 (ip), vehicle: saline with Tween-80): 98 % of control | T/C (dose: 64.0 mg/kg/injection, schedule: Q04DX002 (ip), vehicle: saline with Tween-80): 95 % of control | T/C [4]: 87 % of control | T/C (dose: 160.0 mg/kg/injection, schedule: Q04DX002 (ip), vehicle: saline with Tween-80): 91 % of control | T/C (dose: 200.0 mg/kg/injection, schedule: Q04DX003 (ip), vehicle: saline with Tween-80): 90 % of control | T/C (dose: 400.0 mg/kg/injection, schedule: Q04DX002 (ip), vehicle: saline with Tween-80): 98 % of control | T/C (dose: 400.0 mg/kg/injection, schedule: Q04DX003 (ip), vehicle: saline with Tween-80): 91 % of control

CC(=O)Nc1nnc(NC(C)=O)s1
T/C (dose: 9.38 mg/kg/injection, schedule: Q01DX001 (ip), vehicle: other): 102 % of control | T/C (dose: 18.75 mg/kg/injection, schedule: Q01DX001 (ip), vehicle: other): 107 % of control

CCc1ccccn1
T/C [1]: 100 % of control | T/C [2]: 102 % of control | T/C [3]: 95 % of control
